Patent publication EP4793279A1, “COMPOUND AND METHOD FOR TREATING AND/OR […] KERATOSIS” (priority 2023, dated 2025)
Where two headings read alike, the source gives them in different places.

Assays:
[1] = test system: experimental autoimmune encephalomyelitis (EAE); conditions: in vivo; cited from earlier work
beclin1 = beclin1 (Homo sapiens, UniProt Q14457); conditions: targets beclin1; cited from earlier work
[2] = in water
[3] = test system: human liver cancer HepG2 cells; conditions: cited from earlier work
[4] = 20 °C
[5] = for plasma drug concentrations above the LLOQ: topical gel, dose levels 1-5, LLOQ 0.02 ng/mL
[6] = for Labeled amount / Related substances Impurity A / Related substances Impurity B / Related substances Impurity C / Related substances Impurity D / Related substances Impurity E / Related substances Impurity F / Related substances RRT0.73 / Related substances RRT1.10 / Related substances RRT2.18 / Related substances Total impurities: mixed 1:5 with CMC-Na
[7] = High humidity for 10 days (RH 90%±5%)
[8] = High temperature for 10 days (60°C±2°C)

beclin1, sequence (Q14457 whole entry, species assumed): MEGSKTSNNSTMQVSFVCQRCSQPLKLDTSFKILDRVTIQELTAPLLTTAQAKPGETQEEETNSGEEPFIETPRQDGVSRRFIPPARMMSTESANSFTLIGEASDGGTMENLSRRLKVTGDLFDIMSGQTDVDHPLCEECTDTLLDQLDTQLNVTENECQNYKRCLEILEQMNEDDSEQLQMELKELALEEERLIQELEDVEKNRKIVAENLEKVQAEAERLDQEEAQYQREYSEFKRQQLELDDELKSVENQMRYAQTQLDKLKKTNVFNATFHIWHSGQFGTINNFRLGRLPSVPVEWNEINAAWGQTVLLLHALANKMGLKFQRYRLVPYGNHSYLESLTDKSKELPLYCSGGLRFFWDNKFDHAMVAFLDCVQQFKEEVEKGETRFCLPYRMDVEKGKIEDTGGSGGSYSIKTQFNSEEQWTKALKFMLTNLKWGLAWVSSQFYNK

CO[C@H]1[C@H](O)[C@H](O[C@H]2CC[C@@]3(C)[C@H](CC[C@@H]4[C@@H]3CC[C@]3(C)[C@@H](C5=CC(=O)OC5)CC[C@]43O)C2)O[C@@H](C)[C@@H]1O [neriifolin]
progression of experimental autoimmune encephalomyelitis (EAE) [1]: ameliorate the progression
formation of LC3-associated phagosomes (beclin1): inhibit the formation of LC3-associated phagosomes

CO[C@H]1[C@H](O)[C@H](O[C@H]2CC[C@@]3(C)[C@H](CC[C@@H]4[C@@H]3CC[C@]3(C)[C@@H](C5=CC(=O)OC5)CC[C@]43O)C2)O[C@@H](C)[C@@H]1O [17β-neriifolin]
water solubility [2]: about 70 µg/mL
cell cycle arrest and apoptosis [3]: induce cell cycle arrest and apoptosis
Dissolution behavior ([4]; Ethanol concentration 50 %, sample concentration 24 mg/g): Dissolved
Dissolution behavior ([4]; Ethanol concentration 66 %, sample concentration 32 mg/g): Dissolved
Dissolution behavior ([4]; Ethanol concentration 75 %, sample concentration 40 mg/g): Dissolved
Dissolution behavior ([4]; Ethanol concentration 100 %, sample concentration 50 mg/g): Dissolved
systemic exposure, dose dependence ([5]; 0.008-0.06 mg/cm^2 dose range): No dose-dependent increase
plasma drug concentrations above the LLOQ ([5]; four Australian subjects): 0.021 to 0.101 ng/mL
plasma drug concentrations above the LLOQ ([5]; seven Chinese subjects): 0.022 to 0.106 ng/mL
stability of the combination ([6]; combination with sodium carboxymethyl cellulose compared with combination with Carbomer): significantly superior
impact on the related substances and drug content ([6]; combined 1:5 with sodium carboxymethyl cellulose, high temperature, high humidity, illumination, 10 days): no impact
Labeled amount ([6]; 0 days): 99.56%
Related substances Impurity A ([6]; 0 days): 0.17%
Related substances Impurity B ([6]; 0 days): 0.36%
Related substances Impurity C ([6]; 0 days): 0.25%
Related substances Impurity D ([6]; 0 days): 0.13%
Related substances Impurity E ([6]; 0 days): 0.15%
Related substances Impurity F ([6]; 0 days): 0.14%
Related substances RRT0.73 ([6]; 0 days): 0.05%
Related substances RRT1.10 ([6]; 0 days): 0.04%
Related substances RRT2.18 ([6]; 0 days): 0.03%
Related substances Total impurities ([6]; 0 days): 1.32%
Labeled amount [6, 7]: 99.42%
Related substances Impurity A [6, 7]: 0.17%
Related substances Impurity B [6, 7]: 0.36%
Related substances Impurity C [6, 7]: 0.25%
Related substances Impurity D [6, 7]: 0.13%
Related substances Impurity E [6, 7]: 0.15%
Related substances Impurity F [6, 7]: 0.14%
Related substances RRT0.73 [6, 7]: 0.05%
Related substances RRT1.10 [6, 7]: 0.04%
Related substances RRT2.18 [6, 7]: 0.03%
Related substances Total impurities [6, 7]: 1.32%
Labeled amount [6, 8]: 100.95%
Related substances Impurity A [6, 8]: 0.17%
Related substances Impurity B [6, 8]: 0.36%
Related substances Impurity C [6, 8]: 0.25%
Related substances Impurity D [6, 8]: 0.13%
Related substances Impurity E [6, 8]: 0.15%
Related substances Impurity F [6, 8]: 0.14%
Related substances RRT0.73 [6, 8]: 0.05%
Related substances RRT1.10 [6, 8]: 0.04%
Related substances RRT2.18 [6, 8]: 0.03%
Related substances Total impurities [6, 8]: 1.32%
Labeled amount ([6]; Strong light for 10 days): 99.96%
Related substances Impurity A ([6]; Strong light for 10 days): 0.17%
Related substances Impurity B ([6]; Strong light for 10 days): 0.36%
Related substances Impurity C ([6]; Strong light for 10 days): 0.25%
Related substances Impurity D ([6]; Strong light for 10 days): 0.13%
Related substances Impurity E ([6]; Strong light for 10 days): 0.15%
Related substances Impurity F ([6]; Strong light for 10 days): 0.14%
Related substances RRT0.73 ([6]; Strong light for 10 days): 0.05%
Related substances RRT1.10 ([6]; Strong light for 10 days): 0.04%
Related substances RRT2.18 ([6]; Strong light for 10 days): 0.03%
Related substances Total impurities ([6]; Strong light for 10 days): 1.32%
